Experimental findings from patent US8268827B2, “Pyridazinone derivatives as PARP inhibitors” (Istituto di Ricerche di Biologia Molecolare P. Angeletti …, priority 2007, dated 2012) are described below.

Counter-ions that a name gives are not always drawn.

This assay deals with BRCA-1 silenced HeLa cells (HeLa shBRCA1-GFP). Kind of assay: Proliferation assay in BRCA-1 silenced HeLa cells. The settings on record: Homo sapiens; BRCA1 silenced HeLa cells, 168 hours; read-out: CC50 in the BRCA1 silenced HeLa cells. In kind it is cell-based. On the procedure:
Proliferation Assay in BRCA-1 Silenced HeLa Cells
Compounds of the present invention were also tested in an anti-proliferative assay in matched pair BRCA1 wt and BRCA1-(shRNA) HeLa cells.
The assay is based on the ability of living cells to convert a redox dye (resazurin) into a fluorescent end product (resofurin). The amount of resofurin produced is directly proportional to the cell number.
HeLa shBRCA1-GFP—These are HeLa cells transduced at an MOI of 100 with a Lentivirus containing a shRNA against BRCA-1 and an expression cassette for GFP. BRCA-1 silencing is more than 80% as assessed by Taqman analysis and the cells stably express GFP.
HeLa THM-GFP—These are HeLa cells transduced at an MOI of 100 with a control vector not expressing any shRNA.
• Seed 300 cell/well in 96 wells viewplate black in 90 ul culture Medium*: • Incubate 4 hours at 37° C., 5% CO2 • Add 10 ul/well of 10× compound (5% DMSO in H2O) • Incubate for 168 hours at 37° C., 5% CO2 • Add 10 ul of Celltiter Blue solution (Promega, G8081) pre-diluted 1:1 in PBS1× • Incubate the mixture for 45′ at 37° C., 5% CO2 • Incubate 15′ at RT in the dark • Read plate at fluorimeter ex: 550 nm; em: 590 nm *Culture Medium: DMEM (GIBCO, 41966-029), 10% FCS (GIBCO, 10106-169), 0.1 mg/ml Penicillin-Streptomycin (GIBCO, 15140-114), 2 mM L-Glutamine (GIBCO, 3042190)
The term CC50 denotes the concentration giving 50% cytotoxicity. Turning to `Cc1c(Cc2ccc(F)c(C(=O)N3CCN(C4CCCCC4)C(=O)C3)c2)n[nH]c(=O)c1C(F)(F)F` [Example 25, 3-{3-[(4-Cyclohexyl-3-oxopiperazin-1-yl)carbonyl]-4-fluorobenzyl}-4-methyl-6-oxo-5-(trifluoromethyl)-1,6-dihydropyridazin-1-ium trifluoroacetate], the CC50 was under 50 nM.

Take `Cc1c(Cc2ccc(F)c(C(=O)N3CCN(c4ccc(F)c(F)c4)C(=O)C3)c2)n[nH]c(=O)c1C(F)(F)F` [Example 26, 3-(3-{[4-(3,4-Difluorophenyl)-3-oxopiperazin-1-yl]carbonyl}-4-fluorobenzyl)-4-methyl-6-oxo-5-(trifluoromethyl)-1,6-dihydropyridazin-1-ium trifluoroacetate]: the cytotoxic concentration (CC50) is under 50 nM.

Regarding `O=C(c1cc(Cc2cc(C(F)(F)F)c(=O)[nH]n2)ccc1F)N1CCN(C2CCCCC2)C(=O)C1` [Example 27, 6-{3-[(4-Cyclohexyl-3-oxopiperazin-1-yl)carbonyl]-4-fluorobenzyl}-3-oxo-4-(trifluoromethyl)-2,3-dihydropyridazin-1-ium trifluoroacetate], the CC50 was 50 to 500 nM.

Regarding `CCc1c(Cc2ccc(F)c(C(=O)N3CCN(C4CCCCC4)C(=O)C3)c2)n[nH]c(=O)c1C` [Example 28, 3-{3-[(4-Cyclohexyl-3-oxopiperazin-1-yl)carbonyl]-4-fluorobenzyl}-4-ethyl-5-methyl-6-oxo-1,6-dihydropyridazin-1-ium trifluoroacetate], the CC50 lay within 50 to 500 nM.

On to `CCc1c(C)c(Cc2ccc(F)c(C(=O)N3CCN(C4CCCCC4)C(=O)C3)c2)n[nH]c1=O` [Example 29, 3-{3-[(4-Cyclohexyl-3-oxopiperazin-1-yl)carbonyl]-4-fluorobenzyl}-5-ethyl-4-methyl-6-oxo-1,6-dihydropyridazin-1-ium trifluoroacetate], for which the CC50 is under 50 nM.

In the case of `CCc1cc(Cc2ccc(F)c(C(=O)N3CCN(C4CCCC4)C(=O)C3)c2)n[nH]c1=O` [Example 30, 3-{3-[(4-Cyclopentyl-3-oxopiperazin-1-yl)carbonyl]-4-fluorobenzyl}-5-ethyl-6-oxo-1,6-dihydropyridazin-1-ium trifluoroacetate], the CC50 was under 50 nM.

Turning to `Cc1c(Cc2ccc(F)c(C(=O)N3CCN(c4cc(Cl)cc(Cl)c4)C(=O)C3)c2)n[nH]c(=O)c1C` [Example 42, 3-(3-{[4-(3,5-Dichlorophenyl)-3-oxopiperazin-1-yl]carbonyl}-4-fluorobenzyl)-4,5-dimethyl-6-oxo-1,6-dihydropyridazin-1-ium trifluoroacetate], the CC50 was under 50 nM.

Turning to `Cc1c(Cc2ccc(F)c(C(=O)N3CCN(c4cccc5ccccc45)C(=O)C3)c2)n[nH]c(=O)c1C` [Example 43, 3-(4-Fluoro-3-{[4-(1-naphthyl)-3-oxopiperazin-1-yl]carbonyl}benzyl)-4,5-dimethyl-6-oxo-1,6-dihydropyridazin-1-ium trifluoroacetate], the CC50 is under 50 nM.

With `Cc1c(Cc2ccc(F)c(C(=O)N3CCN(c4cccs4)C(=O)C3)c2)n[nH]c(=O)c1C` [Example 44, 3-(4-Fluoro-3-{[3-oxo-4-(2-thienyl)piperazin-1-yl]carbonyl}benzyl)-4,5-dimethyl-6-oxo-1,6-dihydropyridazin-1-ium trifluoroacetate], the CC50 was under 50 nM.

On to `Cc1c(Cc2ccc(F)c(C(=O)N3CCN(CC(C)C(F)(F)F)C(=O)C3)c2)n[nH]c(=O)c1C` (centres unmarked) [Example 45, 6-(4-Fluoro-3-{[3-oxo-4-(3,3,3-trifluoro-2-methylpropyl)piperazin-1-yl]carbonyl}benzyl)-4,5-dimethyl-3-oxo-2,3-dihydropyridazin-1-ium trifluoroacetate], for which the CC50 was under 5000 nM.

On to `Cc1c(Cc2ccc(F)c(C(=O)N3CCN(C(c4ccccc4)C(F)F)C(=O)C3)c2)n[nH]c(=O)c1C` (centres unmarked) [Example 46, 6-(3-{[4-(2,2-Difluoro-1-phenylethyl)-3-oxopiperazin-1-yl]carbonyl}-4-fluorobenzyl)-4,5-dimethyl-3-oxo-2,3-dihydropyridazin-1-ium trifluoroacetate], for which the CC50 is under 50 nM.

As to `Cc1c(Cc2ccc(F)c(C(=O)N3CCN(C4CCCOC4)C(=O)C3)c2)n[nH]c(=O)c1C` (centres unmarked) [Example 47, 6-(4-Fluoro-3-{[3-oxo-4-(tetrahydro-2H-pyran-3-yl)piperazin-1-yl]carbonyl}benzyl)-4,5-dimethyl-3-oxo-2,3-dihydropyridazin-1-ium trifluoroacetate], the CC50 lay within 50 to 500 nM.

For `Cc1c(Cc2ccc(F)c(C(=O)N3CCN(c4csc5ccccc45)C(=O)C3)c2)n[nH]c(=O)c1C` [Example 62, 3-(3-{[4-(1-Benzothien-3-yl)-3-oxopiperazin-1-yl]carbonyl}-4-fluorobenzyl)-4,5-dimethyl-6-oxo-1,6-dihydropyridazin-1-ium trifluoroacetate], the CC50 was in the range of 50 to 500 nM.

For `Cc1c(Cc2ccc(F)c(C(=O)N3CCN(c4cncs4)C(=O)C3)c2)n[nH]c(=O)c1C` [Example 63, 3-(4-Fluoro-3-{[3-oxo-4-(1,3-thiazol-5-yl)piperazin-1-yl]carbonyl}benzyl)-4,5-dimethyl-6-oxo-1,6-dihydropyridazin-1-ium trifluoroacetate], the CC50 is under 50 nM.

On to `Cc1c(Cc2ccc(F)c(C(=O)N3CCN(c4cncnc4)C(=O)C3)c2)n[nH]c(=O)c1C` [Example 64, 3-{4-Fluoro-3-[(3-oxo-4-pyrimidin-5-ylpiperazin-1-yl)carbonyl]benzyl}-4,5-dimethyl-6-oxo-1,6-dihydropyridazin-1-ium trifluoroacetate], for which the CC50 was under 5000 nM.

Turning to `Cc1c(Cc2ccc(F)c(C(=O)N3CCN(c4cncc(C(F)(F)F)c4)C(=O)C3)c2)n[nH]c(=O)c1C` [Example 65, 3-[4-Fluoro-3-({3-oxo-4-[5-(trifluoromethyl)pyridin-3-yl]piperazin-1-yl}carbonyl)benzyl]-4,5-dimethyl-6-oxo-1,6-dihydropyridazin-1-ium trifluoroacetate], the CC50 was in the range of 50 to 500 nM.

With `Cc1c(Cc2ccc(F)c(C(=O)N3CCN(C4CCCC(c5ccccc5)C4)C(=O)C3)c2)n[nH]c(=O)c1C` (centres unmarked) [Example 66, 6-(4-Fluoro-3-{[3-oxo-4-(3-phenylcyclohexyl)piperazin-1-yl]carbonyl}benzyl)-4,5-dimethyl-3-oxo-2,3-dihydropyridazin-1-ium trifluoroacetate], the CC50 lay within 50 to 500 nM.

Turning to `Cc1c(Cc2ccc(F)c(C(=O)N3CCN(C4CCC(c5ccccc5)CC4)C(=O)C3)c2)n[nH]c(=O)c1C` (centres unmarked) [Example 68, 6-(4-Fluoro-3-{[3-oxo-4-(4-phenylcyclohexyl)piperazin-1-yl]carbonyl}benzyl)-4,5-dimethyl-3-oxo-2,3-dihydropyridazin-1-ium trifluoroacetate], the CC50 was under 50 nM.

On to `Cc1c(Cc2ccc(F)c(C(=O)N3CCN(C4CCOC4)C(=O)C3)c2)n[nH]c(=O)c1C` (centres unmarked) [Example 69, 6-(4-Fluoro-3-{[3-oxo-4-(tetrahydrofuran-3-yl)piperazin-1-yl]carbonyl}benzyl)-4,5-dimethyl-3-oxo-2,3-dihydropyridazin-1-ium trifluoroacetate], for which the half-maximal cytotoxic concentration (CC50) lay within 50 to 500 nM.

On to `Cc1c(Cc2ccc(F)c(C(=O)N3CCN(C4CCc5ccccc5C4)C(=O)C3)c2)n[nH]c(=O)c1C` (centres unmarked) [Example 70, 6-(4-Fluoro-3-{[3-oxo-4-(1,2,3,4-tetrahydronaphthalen-2-yl)piperazin-1-yl]carbonyl}benzyl)-4,5-dimethyl-3-oxo-2,3-dihydropyridazin-1-ium trifluoroacetate], for which the CC50 is under 50 nM.
